Laboratory results taken from patent US12145959B2, “Bile acid recycling inhibitors for treatment of hypercholemia and cholestatic liver disease” (SHIRE HUMAN GENETIC THERAPIES, INC., priority 2011, dated 2024).

How the values were obtained:
[1] = test system: Male Zucker diabetic fatty rats (ZDF/GmiCrl-fa/fa); experiment: ZDF rat study of 264W94: fecal bile acid excretion, fecal NEFA and plasma bile acids; assay type: in vivo; conditions: 2 weeks
Experimental: Animal preparation. Male Zucker diabetic fatty rats (ZDF/GmiCrl-fa/fa) were purchased from Charles River (Raleigh, NC) and housed under controlled conditions (12:12 light-dark cycle, 24° C. and 50% relative humidity) with free access to rodent food (Purina 5008, Harlan Teklad, Indianapolis, IN). All rats arrived at seven weeks of age (+3 days). After a one-week acclimation period, rats were anesthetized with isoflurane (Abbott Laboratories, IL) and tail-vein blood samples were collected at 9 am without fasting. Blood glucose levels were measured using a glucometer (Bayer, Leverkusen, Germany). In order to ensure balanced treatment groups, ZDF rats were assigned to six treatment groups based upon baseline glucose: vehicle (0.5% HPMC, 0.1% Tween80) and five doses of 264W94 (0.001, 0.01, 0.1, 1, 10 mg/kg). All treatments were given via oral gavage twice a day and animals were followed for two weeks with blood samples collected from tail vein at the end of each week at 9 am without fasting. Fecal samples were collected for 24 hours during the second week of treatment.
Measurement of clinical chemistry parameters. Non-esterified fatty acids (NEFA), bile acids, and bile acids in fecal extraction were measured using the Olympus AU640 clinical chemistry analyzer (Beckman Coulter, Irving, TX).

Male beagle dogs [2] = experiment: Time to onset of activity of a single oral dose on postprandial total serum bile acids in beagle dogs; assay type: in vivo, dog
Experimental: Animal Study on the Duration of Action and Time to Onset of ASBTI Activity of a Single Oral Dose of LUM001 on Postprandial Total Serum Bile Acids in Beagle Dogs
Test compound: LUM001—Form I
(§1) Dosage preparation and administration: LUM001 was dissolved in water at concentrations that required the administration of 0.2 ml/kg of solution. Solutions were placed into gelatin capsules, Torpac Inc., size 13 Batch 594, East Hanover NJ, and administered orally.
(§2) Dogs: Male beagle dogs were obtained from Covance Research Products, Cumberland VA or Marshall Farms USA, Inc., North Rose NY A total of 20 dogs, 1 to 5 years old, 6.8 to 15.6 kg body weight, were used in these experiments. The dogs were conditioned to a 12 hour light/dark cycle and maintained on a feeding restriction of 1 hour per day access to food (Richman Standard Certified Canine Diet #5007, PMI Nutrition, Inc., St Louis MO) from 7 to 8 AM. They were trained to eat a special meal promptly within 20 minutes when presented (1 can. 397 g, Evanger's 100% Beef for Dogs, Evanger's Dog and Cat Food Co., Inc., Wheeling IL, mixed with 50 g of sharp cheddar cheese.).
(§3) Serum Total Bile Acid (SBA) Measurement: SBA was measured by an enzymatic assay. SBA values are expressed as μg of total bile acids/ml of serum.
To estimate the details of this plateau, 6 dogs were given a test meal and blood samples for SBA measurement were collected at −30, 0, 30, 60, 65, 70, 80, 90, 120, 180, 240, 360, 480, 720, 1410 and 1440 minutes from the time of feeding. Any remaining food was removed 20 min after it was first presented to the dogs. To establish a method for extending the elevated plateau of SBA, 6 dogs were given the meal at 0 hr and an additional ½ size meal again 4 hr after their first meal. Blood samples were taken at 0, 1, 2, 3, 4, 4.5, 6, 7 and 8 hr. The curves for SBA level vs time obtained in these experiments were used as references for determining blood sampling times in experiments with LUM001. […]

Male beagle dogs [3] = experiment: Duration of action on dog serum bile acids, Method 2: one meal and extended interval between dosing and feeding; assay type: in vivo; conditions: administered 2 hours prior to feeding
Experimental: as §1, §2, §3
Method 2: One Meal and Extended Interval Between Dosing and Feeding: Alternatively, 6 dogs were dosed with water or LUM001, at 0.05 mg/kg, p.o. at 1.5 hours prior to being fed, or 0.05, or 0.2 mg/kg, at 2 hours prior to feeding. This moved the elevated SBA plateau out in time from the dose point. […]

healthy adult subjects = experiment: Phase 1 ascending multiple oral dose study: serum and fecal bile acid analysis; assay type: in vivo, human; conditions: healthy adults; ascending multiple oral doses qAM, 28 days
Experimental: FIG. 3. Serum bile acid (SBA) analysis of healthy subjects after administration of ascending multiple oral doses of LUM001 a randomized, double-blind, placebo-controlled study. Shown in the graphs are data from the 0.5 (n=16), 1.0 (n=8), 2.5 (n=8), 5.0 (n=8) and 10 (n=8) mg dosing groups. On Day 1, blood was drawn for baseline SBA at approximately 30 minutes before and after breakfast and 30 minutes after lunch and dinner. Samples were obtained on day 14.
FIG. 4. Fecal bile acid analysis of healthy subjects after administration of ascending multiple oral doses of LUM001 a randomized, double-blind, placebo-controlled study. […]
SBA were analyzed as part of the routine clinical analysis of the serum samples collected at each time point.
Fecal Bile Acid Analysis: Fecal samples were collected for all panels except the dose-titration panel, 2.5 (2) and 5 mg (2), on Days 9 through 14 and 23 through 28 (data shown in FIG. 4). Twenty-four hour FBA excretions were quantified by Pharmacia for Days 9 through 14 and 23 through 28. […] The weight of each 24-hour fecal collection was recorded on the CRFs. […]
An aliquot for each 24-hour fecal sample collected on Days 23 through 28 was combined, homogenized, and analyzed for bile acid species concentrations by ANAPHARM. The fecal bile acid species evaluated include chenodeoxycholic acid, cholic acid, deoxycholic acid, and lithocholic acid.

[4] = Systemic exposure (pharmacokinetics) of LUM001 in patients under 18, study NB-00-02-014; assay type: in vivo, human; conditions: QD in the morning, measured on day eight
Experimental: (§4) LUM001 has been administered to forty patients under the age of 18 years old. […] The drug was administered once-a-day (QD) in the morning for fourteen days. […] These doses are similar to those using to treat patients with cholestatic diseases.

[5] = test system: children and adolescents under the age of eighteen; experiment: Human study of fasting and post-prandial peak serum bile acids in children and adolescents; assay type: in vivo
Experimental: FIG. 5. Fasting serum bile acid levels and morning post-prandial peak in children under the age of 12. LUM001 was administered once-a-day (QD) in the morning for fourteen days.
Human Study to Test Efficacy of ASBTI in Lowering Serum Bile Acids
as §4
The efficacy of LUM001 was determined by measuring total serum bile acids after eight days of dosing in children and adolescents under the age of eighteen. Thirty minutes before the next drug administration, at approximately 8 am in the morning, serum bile acid levels were measured. The child had refrained from food for 12 hours prior to this sample thus providing a fasted level of serum bile acid. After breakfast, serum bile acids were measured for up to the next 4 hours (8 am to noon) and the peak serum bile acid concentration noted.

Male beagle dogs [6] = conditions: previous experiments (2); cited from earlier work
Male ZDF rats = experiment: Plasma bile acid levels of ZDF rats after ascending doses of SC-435 and LUM002; assay type: in vivo, rat; conditions: ZDF rats n=4; oral gavage twice a day 2 weeks; all doses (SC-435 1, 10, 30 mg/kg; LUM002 0.3, 1, 3, 10, 30 mg/kg); end of second week
Experimental: FIG. 2. Plasma bile acid levels of ZDF rats after administration of ascending doses of SC-435 and LUM002. Male ZDF rats (n=4) were administered vehicle, SC-435 (1, 10 or 30 mg/kg) or LUM002 (0.3, 1, 3, 10 or 30 mg/kg) by oral gavage twice a day for 2 weeks. Plasma bile acid levels were determined at the end of the second week. Data are expressed as mean values±SEM.
Plasma bile acid levels of ZDF rats after administration of ascending doses of SC-435 and LUM002. Male ZDF rats (n=4) were administered vehicle, SC-435 (1, 10 or 30 mg/kg) or LUM002 (0.3, 1, 3, 10 or 30 mg/kg) by oral gavage twice a day for 2 weeks. Plasma bile acid levels were determined at the end of the second week. […] Data are expressed as mean values±SEM.

[7] = FIG. 5 legend: children under the age of 12, QD for fourteen days
[8] = LUM001 treated patients under eighteen, after eight days of dosing
[9] = patients under eighteen, after eight days of dosing

CCCC[C@]1(CC)CS(=O)(=O)c2cc(OC)c(OC)cc2[C@@H](c2ccccc2)N1 [Compound 264W94]
Fecal bile acid concentrations elevated, compared to vehicle treated rats ([1]; 0.001-10 mg/kg oral gavage twice a day, 24 h feces in second week, maximum elevation): up to 6.5 fold | Bile acids in the feces ([1]; oral administration twice a day): dose-dependently increased

CCCCC1(CCCC)CS(=O)(=O)c2ccc(N(C)C)cc2[C@@H](c2ccc(OCc3ccc(C[N+]45CCN(CC4)CC5)cc3)cc2)[C@H]1O [LUM001]
Effect of increasing the dose on onset time to significant SBA lowering (Male beagle dogs [2]; 1 mg/kg versus 0.2 mg/kg): did not shorten the onset time | ED50 (Male beagle dogs [2]; Canis lupus familiaris, oral, read-out: ED50 dose in the dog SBA model): 0.2 mg/kg | Threshold dose for significant lowering of SBA levels (Male beagle dogs [2]; oral, 1 hour after feeding): 0.05 mg/kg | Dose required to produce a significant effect on SBA (Male beagle dogs [3]): 0.2 mg/kg | Fecal bile acids (healthy adult subjects): significant increase | Serum bile acids (healthy adult subjects): significant reduction | Systemic absorption (levels of systemic exposure) [4]: minimally absorbed | Decrease in average fasting serum bile acid level versus placebo patients [5, 7]: 24% | Decrease in average post-prandial peak serum bile acid level versus placebo patients [5, 7]: 23% | Average fasting serum bile acid level [5, 8]: 6.5 µmol/L | Average post-prandial peak serum bile acid level [5, 8]: 9.2 µmol/L | Decrease in average fasting serum bile acid level versus placebo patients [5, 9]: 24% | Decrease in average post-prandial peak serum bile acid level versus placebo patients [5, 9]: 23% | Time that the compound remains active (Male beagle dogs [6]): more than 4.5 hours

CCCC[C@]1(CC)CS(=O)(=O)c2ccc(N(C)C)cc2[C@@H](c2cccc(NC(=O)N[C@@H]3O[C@H](COS(=O)(=O)[O-])[C@@H](O)[C@H](OCc4ccccc4)[C@H]3O)c2)[C@H]1O.[K+] [LUM002]
Plasma bile acid levels (Male ZDF rats): decreased

CCCCC1(CCCC)CS(=O)(=O)c2ccc(N(C)C)cc2[C@@H](c2ccc(OCCCC[N+]34CCN(CC3)CC4)cc2)[C@H]1O.CS(=O)(=O)[O-] [SC-435, 1-[4-[4-[(4R,5R)-3,3-dibutyl-7-(dimethylamino)-2,3,4,5-tetrahydro-4-hydroxy-1,1-dioxido-1-benzothiepin-5-yl]phenoxy]butyl]4-aza-1-azoniabicyclo[2.2.2]octane methanesulfonate salt, reference compound]
Plasma bile acid levels (Male ZDF rats): decreased
